Measurements: patent publication US20160229835A1, “NOVEL PYRIDYLOXYACETYL TETRAHYDROISOQUINOLINE COMPOUNDS USEFUL AS NAMPT INHIBITORS” (ELI LILLY AND COMPANY, priority 2013, published 2016)
Where two headings read alike, the source gives them in different places.

Assays:
A498 = experiment: Cell Proliferation Assay ±NA, A498; type: cell-based; details: Homo sapiens, A498, kidney, treatment time 48 hr
Procedure: (§1) The purpose of this assay is to measure the ability of a compound to inhibit proliferation of endometrium, kidney, adrenal gland, and autonomic ganglia cancer cell lines dependent on the NAMPT-mediated NAD^+ formation in the presence or absence of NA (10 μM) in vitro. One day before the planned initiation of compound treatment portion of the assay, one vial of assay ready frozen cells is thawed, and the cells are grown overnight in the media as shown in Table 3 under 5% CO2 at 37° C. Then, the cell layer is briefly rinsed with 0.25% (w/v) Trypsin-0.038% (w/v) EDTA solution followed with the addition of 3.0 ml of Trypsin-EDTA solution. Once the cell layer is dispersed, 8.0 ml of complete growth medium (Table 3) is added and cells are aspirated by gently pipetting. The cell suspension is transferred to a centrifuge tube and centrifuged at 800-1000 rpm for 3-5 minutes. The supernatant is discarded using a vacuum pump. The cell pellet is suspended in a complete medium by gently pipetting. The cell numbers are counted and adjusted to the appropriate density (Table 3). […] The bottom of each plate is pasted with a white back seal and luminescence is recorded using a Flexstation 3 with the following settings: Luminescence and integration time of 500 ms.

[1] = test system: NAMPT-mediated NAD+ formation in A2780 tumors; experiment: IVTI Assay (NAD+ formation in A2780 tumors); type: in vivo; details: A2780 xenograft, female nude mice, oral gavage, after 2 doses (7 hours after second dose); ± SE
Procedure: The purpose of this assay is to measure the ability of a test compound to inhibit the NAMPT-mediated NAD^+ formation in tumors in an animal model. A2780 cells (ATCC) are grown as described above for the NAD^+ assay (Assay for NAD^+/NMN Levels in A2780 Cells). The cells (5×10^6/animal) are mixed with MATRIGEL® (1:1) and implanted subcutaneously into the rear flank of the mice (female nude mice, Harlan). The implanted tumor cells grow as solid tumors. The tumor volume and body weight are measured twice a week with a caliper. After tumor volume reaches approximately 300-500 mm^3, animals are randomized and grouped into positive control (described herein; 5 animals/group) and compound treatment groups (5 animals/group). The compound (formulated in 20% of CAPTISOL® and 25 mM of phosphate buffer, pH 2) and positive control (20% of CAPTISOL® and 25 mM of phosphate buffer, pH 2) are administered by oral gavage. Compound doses are in the range of 0.10 to 25 mg/kg. […] The resulting preparations (0.5 mL each) are filtered (with a 10K cutoff filter) to remove hemoglobin because red color interferes with the absorbance. […] NAD^+ quantitation is carried out using a NAD^+/NADH cycling assay kit (BioVision, cat#337-100-1). […] The percent inhibition of compound treated groups is calculated relative to the minimum inhibition groups. […]

GOTO = experiment: Cell Proliferation Assay ±NA, GOTO; type: cell-based; details: autonomic ganglia, treatment time 96 hr
Procedure: as §1

NCI-H295 = experiment: Cell Proliferation Assay ±NA, NCI-H295; type: cell-based; details: NCI-H295, adrenal gland, treatment time 144 hr
Procedure: as §1

ACHN = experiment: Cell Proliferation Assay ±NA, ACHN; type: cell-based; details: Homo sapiens, kidney, treatment time 72 hr
Procedure: as §1

OS-RC-2 = experiment: Cell Proliferation Assay ±NA, OS-RC-2; type: cell-based; details: Homo sapiens, OS-RC-2, kidney, treatment time 72 hr
Procedure: as §1

[2] = NA 0.0 μM, read-out: IC50 (μM) NA (0.0 μM)
[3] = NA 10 μM, read-out: IC50 (μM) NA (10 μM)

CC(C)(O)CS(=O)(=O)Nc1ccc2c(c1)CCN(C(=O)COc1cccnc1)C2 [Example 1, 2-Hydroxy-2-methyl-N-[2-[2-(3-pyridyloxy)acetyl]-3,4-dihydro-1H-isoquinolin-6-yl]propane-1-sulfonamide]
IC50 (A498; [2]): 1.84 µM
IC50 (A498; [3]): > 2 µM
TED50 (dose for 50% inhibition of NAD+ formation in tumor) [1]: 2.56 ± 0.37 mg/kg
IC50 (GOTO; [2]): 0.02 µM
IC50 (GOTO; [3]): 0.02 µM
IC50 (NCI-H295; [2]): 0.1 µM
IC50 (NCI-H295; [3]): 0.06 µM
IC50 (ACHN; [2]): 0.11 µM
IC50 (ACHN; [3]): > 2 µM
IC50 (OS-RC-2; [2]): > 2 µM
IC50 (OS-RC-2; [3]): > 2 µM
